# Experimental data as given in patent publication US4898867A, “Thienopyrimidine derivaties as aldose-reductase inhibitors” (Taiho Pharmaceutical Company, Limited, priority 1987, dated 1990).
# Where a name gives a salt, the structure may show the parent alone.
# Molecular target: T1, aldose-reductase (AR) (Rattus norvegicus, UniProt P07943)
# T1 construct: The supernatant obtained was used as AR; from tissue; host or cells: lenses of male Wistar rats (10000 rpm supernatant of homogenate)
# Experiment: Aldose-reductase inhibitory activity (decrease in absorbance of NADPH at 340 nm, glyceraldehyde substrate)
# Format: biochemical, Wister male rats (lenses)
# Conditions: rat lens AR supernatant, 0.1M phosphate buffer pH 6.2, 30° C.
# Method: The aldose-reductase (AR) activity was evaluated by determining spectrophotometrically the decrease in absorbance of NADPH at 340 nm due to the reduction of the substrate, i.e., glyceraldehyde according to the method described in Biochemical Pharmacology 25, pp 2505-2513 (1976).
# The lenses of Wister male rats was homogenized with 0.5 ml of 0.1M phosphate buffer (pH 6.2) per lens by a glass homogenizer and the homogenate was centrifuged at 10000 rpm for 10 minutes. The supernatant obtained was used as AR.
# The determination of the AR activity was conducted as follows. A 700 μl quantity of 0.1M phosphate buffer (pH 6.2), 100 μl of 2.21 mM NADPH, 100 μl of AR and 5 μl of DMSO containing each of test compounds in varying concentrations were placed in a cell for test sample, and 800 μl of 0.1M phosphate buffer (pH 6.2), 100 μl of 2.21 mM NADPH, 100 μl of AR and 5 μl of DMSO were placed in a cell for control. Then the solutions in the cells were thoroughly mixed together and the mixtures were maintained at 30° C. Then 100 μl of 100 mM glyceraldehyde maintained at 30° C. was added to a cell for test sample and quickly blended to initiate the reaction. The AR activity was determined from the rate of change of absorbance per minute in the linear part of variations of absorbance during a period of from 1 minute to three minutes after the start of the reaction, and a dose-response curve was drawn.
row,SMILES,IC50
1,O=C(O)Cn1c(=O)n(Cc2ccc(Cl)cc2Cl)c(=O)c2c3c(sc21)CCCC3 [Compound I-8],0.042 µM
2,O=C(O)Cn1c(=O)n(Cc2ccc(Br)cc2F)c(=O)c2cc(-c3ccccc3)sc21 [Compound I-13],0.034 µM
3,Cc1sc2c(c1C)c(=O)n(Cc1ccc(Br)cc1F)c(=O)n2CC(=O)O [Compound I-14],0.021 µM
4,O=C(O)Cn1c(=O)n(Cc2ccc(Br)cc2F)c(=O)c2c3c(sc21)CCCC3 [Compound I-15],0.023 µM
5,O=C(O)Cn1c(=O)n(Cc2ccc(Br)cc2F)c(=O)c2cc(C3CCCC3)sc21 [Compound I-16],0.03 µM
6,O=C(O)Cn1c(=O)n(Cc2ccc(Br)cc2F)c(=O)c2ccsc21 [Compound I-19],0.02 µM
7,"Cc1csc2c1c(=O)n(Cc1ccc(Br)cc1F)c(=O)n2CC(=O)O [Compound I-20, 1-carboxymethyl-3-(4-bromo-2-fluorobenzyl)-5-methylthieno[2,3-d]pyrimidin-2,4(1H, 3H)-dione]",0.024 µM

# Continued, values first:
row,IC50,SMILES
1,0.075 µM,"Cc1sc2c(c1C)c(=O)n(Cc1ccc(Cl)cc1)c(=O)n2CC(=O)O [Compound I-1, 1-carboxymethyl-3-(4-chlorobenzyl)-5,6-dimethylthieno[2,3-d]pyrimidin-2,4(1H, 3H)-dione]"
2,0.02 µM,Cc1sc2c(c1C)c(=O)n(Cc1ccc(Cl)cc1Cl)c(=O)n2CC(=O)O [Compound I-2]
3,0.026 µM,CC(C)c1cc2c(=O)n(Cc3ccc(Cl)c(Cl)c3)c(=O)n(CC(=O)O)c2s1 [Compound I-3]
4,0.017 µM,CC(C)c1cc2c(=O)n(Cc3ccc(Cl)cc3Cl)c(=O)n(CC(=O)O)c2s1 [Compound I-4]
5,0.03 µM,Cc1csc2c1c(=O)n(Cc1ccc(Cl)c(Cl)c1)c(=O)n2CC(=O)O [Compound I-5]
6,0.026 µM,Cc1c(Br)sc2c1c(=O)n(Cc1ccc(Cl)c(Cl)c1)c(=O)n2CC(=O)O [Compound I-10]
7,0.025 µM,Cc1c(Cl)sc2c1c(=O)n(Cc1ccc(Cl)c(Cl)c1)c(=O)n2CC(=O)O [Compound I-11]
8,0.022 µM,CC(C)c1cc2c(=O)n(Cc3ccc(Br)cc3F)c(=O)n(CC(=O)O)c2s1 [Compound I-17]
9,0.025 µM,O=C(O)Cn1c(=O)n(Cc2ccc(Br)cc2F)c(=O)c2cc(Cl)sc21 [I-24 (Lysine salt)]
